The source of these data is US4943595A, “Perfluorochemicals and process for preparing the same” (The Green Cross Corporation, priority 1984, dated 1990).

Where two headings read alike, the source gives them in different places.

Series [1] is described as follows: Stability of emulsion stored at 4° C. (change of particle size). It is filed as physicochemical. More on the design: key: Excellent: Particle size is hardly increased one month after the storage.; Good: The increase of the particle size is at most 50% or liquid-particle separation is observed one month after the storage. Conditions: one month at 4° C., emulsion sterilized 100° C. 30 min. How it is done: (§1) According to the above preparation method of the emulsion, the emulsions of various perfluoroalkyl ether derivatives are prepared. Nine parts by volume of the resulting emulsion were diluted with 1 part by volume of an electrolyte solution of the following composition:
(§2) The emulsions were sterized by heating at 100° C. for 30 minutes in a nitrogen atmosphere. The emulsions were used for the following test.
The emulsions were stored at 4° C. and the stability was measured in terms of the change of the particle size by the following measures.
Good: The increase of the particle size is at most 50% or liquid-particle separation is observed one month after the storage.

Series [2] in a line: Elimination property: half reduction term in the body of the rat. The class given is in vivo. The protocol: as §1, §2
This property was measured by the half reduction term in the body of the rat, and evaluated as follows: […]

A short description of series [3]: Vapor pressure of the perfluorochemical. Particulars: 38° C.
For series [4] the following is noted: comparison between perfluorochemicals; cited from earlier work.
The test system of another series is wister male rats. Kind of series: Acute toxicity after intravenous injection of emulsion, observed by dissection (pulmonary emphysema). The class given is in vivo. Particulars: i.v., rat, one week after injection. How it is done: as §1, §2
The emulsions which had been made physiologically isotonic were injected intravenously to the wister male rats of 100 to 200 g. One week after the injection acute toxicity was observed by dissection, and evaluation was effected according to the following measures.
Toxic: Occurrence of pulmonary emphysema. LD50 : 2-4 g/kg
Non toxicic: No occurence of pulmonary emphysema. LD50 : above 20 g/kg

The conditions of series [5]: 37° C.; cited from earlier work.

For `FC(F)(F)C(F)(F)OC(C(F)(F)F)(C(F)(C(F)(F)F)C(F)(F)F)C(F)(C(F)(F)F)C(F)(F)F`, the “Stability of Emulsion” value in series [1] is on record as “excellent”.
With `FC(F)(F)C(F)(F)C(F)(F)OC(F)(F)C(F)(F)C(F)(F)C(F)(F)C(F)(F)C(F)(F)C(F)(F)F` [Example 18, Perfluoro-1-n-propoxyheptane], the “Stability of Emulsion” value in series [1] is reported as “good”. The Elimination property entry in series [2] is on record as “poort”. Also, the Vapor pressure in series [3] is 15-16 mmHg.
Regarding `FC1(F)C(F)(F)C(F)(F)C2(F)C(F)(F)C(F)(F)C(F)(F)C(F)(F)C2(F)C1(F)F` (centres unmarked) [IV], the “elimination rate (in words)” value in series [4] is listed as “IV>>III≥I >II”.
With `FC(F)(F)C(F)(F)C(F)(F)C(F)(F)C(F)(F)OC(F)(F)C(F)(F)C(F)(F)C(F)(F)C(F)(F)F` [I], the “elimination rate (in words)” value in series [4] was “IV>>III≥I >II”.
Regarding `FC(F)(F)C(F)(F)C(F)(F)C(F)(F)OC(C(F)(F)F)(C(F)(F)F)C(F)(F)C(F)(F)C(F)(F)F` [drawing 61], in series [1], the “Stability of Emulsion” value was “Excellent”. For the same molecule, the Toxicity entry with wister male rats was “Non tox- ic”.
As to `FC(F)(F)C(F)(F)C(F)(F)OC(F)(C(F)(C(F)(F)F)C(F)(F)F)C(F)(C(F)(F)F)C(F)(F)F` [drawing 62], the “Stability of Emulsion” value in series [1] is “excellent”. In addition, the Elimination property result in series [2] is “fair”.
For `FC(F)(F)OC(F)(C(F)(F)F)C(F)(F)C(C(F)(F)F)(C(F)(F)C(F)(F)F)C(F)(F)C(F)(F)F` (centres unmarked) [drawing 63], the “Stability of Emulsion” value in series [1] is “good”.
As for `FC1(F)C(F)(F)C(F)(F)[C@]2(F)C(F)(F)C(F)(F)C(F)(F)C(F)(F)[C@]2(F)C1(F)F` [perfluoro-cis-decalin], the “elimination rate (in words)” value in series [4] was “slightly higher elimination rate than the trans isomer”. For the same molecule, the Vapor pressure in series [5] is 10.1 mmHg.
Turning to `FC1(F)C(F)(F)C(F)(F)[C@]2(F)C(F)(F)C(F)(F)C(F)(F)C(F)(F)[C@@]2(F)C1(F)F` [trans isomer], the Vapor pressure in series [5] is 11.6 mmHg.
